Where two headings read alike, the source gives them in different places.
Columns and labels:
Sucrose synthase II = conditions: cited from earlier work
spHAS = spHAS (Streptococcus pyogenes, UniProt P0C0H0); conditions: cited from earlier work
[1] = more active than morphine; cited from earlier work
CMP-NeuNAc synthetase = target: T1, CMP-NeuNAc synthetase (Escherichia coli O18:K1:H7, UniProt P13266); conditions: enzyme purified from E. coli K1; read-out: apparent Km; cited from earlier work
T1 construct: host or cells: E. coli K1
T1 sequence (P13266 whole entry): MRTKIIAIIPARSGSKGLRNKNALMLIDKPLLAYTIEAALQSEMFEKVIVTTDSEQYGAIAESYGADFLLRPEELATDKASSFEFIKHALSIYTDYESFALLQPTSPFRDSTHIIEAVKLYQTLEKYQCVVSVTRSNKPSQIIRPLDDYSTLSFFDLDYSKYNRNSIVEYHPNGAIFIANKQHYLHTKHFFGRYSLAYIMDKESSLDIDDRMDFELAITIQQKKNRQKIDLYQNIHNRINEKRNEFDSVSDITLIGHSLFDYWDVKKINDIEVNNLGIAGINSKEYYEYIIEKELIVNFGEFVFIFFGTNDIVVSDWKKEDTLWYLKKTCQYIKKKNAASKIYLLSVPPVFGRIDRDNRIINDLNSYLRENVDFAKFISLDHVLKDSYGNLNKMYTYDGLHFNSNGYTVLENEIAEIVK

[2] = tested on: UDP-GalNAc pyrophosphorylase; conditions: substrate of UDP-GalNAc pyrophosphorylase; cited from earlier work
GalT = assay: Enzymatic activity assay for GalT (two-step, UDP-glucose dehydrogenase coupled); type: biochemical, E. coli
Method: This was a two-step assay. In the first step, GalT catalyzed reactions were performed at room temperature (24° C.) for 15 min in a final volume of 250 μl HEPES buffer (100 mM, pH 7.4) containing 1.6 mM Gal-1-P, 2.8 mM UDP-glucose, and 100 μl of enzyme solution. A blank was performed with water replacing Gal-1-P. The reaction was stopped by adding cold NaCl solution (0.5 ml, 0.15 M) and immediately transferring the tube to a boiling water bath for 5 min to terminate the reaction. The contents of the tubes were cooled to room temperature and vortexed vigorously to break up the coagulum. After centrifugation at 1400×g for 15 min, the clear supernatant (0.2 ml) was subjected to the UDP-glucose assay in a cuvette with a total volume of 1 ml containing 0.03 M Tris-acetate buffer, pH 8.7, 1.36 mM NAD, 0.2 ml sample (supernatant from the previous procedure) and 3.2 mU UDP-glucose dehydrogenase. The OD change at 340 nm was monitored by a UV spectrophotometer (HP 8453 Spectrophotometer, Hewlett-Packard Corn.).

GalU = GalU (Escherichia coli, UniProt P0AEP3); assay: Enzymatic activity assay for GalU (two-step, UDP-glucose dehydrogenase coupled); type: biochemical, E. coli
Sequence of GalU (P0AEP3 whole entry): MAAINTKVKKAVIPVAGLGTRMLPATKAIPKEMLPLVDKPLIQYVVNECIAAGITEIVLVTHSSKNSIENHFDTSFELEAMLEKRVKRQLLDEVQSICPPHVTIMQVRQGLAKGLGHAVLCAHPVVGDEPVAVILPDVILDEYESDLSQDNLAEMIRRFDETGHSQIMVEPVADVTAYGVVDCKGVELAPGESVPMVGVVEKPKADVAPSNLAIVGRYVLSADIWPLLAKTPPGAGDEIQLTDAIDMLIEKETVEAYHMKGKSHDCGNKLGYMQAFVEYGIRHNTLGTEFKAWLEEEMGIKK
Method: A two-step assay was carried out to detect the GalU activity. In the first step, GalU catalyzed reactions were performed at room temperature (24° C.) for 15 min in a final volume of 250 μl containing 1.6 mM Glc-1-P, 2.8 mM UTP, 10 mM MgCl2 and 100 μl enzyme solution. A blank was performed with water replacing Glc-1-P. The reaction was stopped by adding cold NaCl solution (0.5 ml, 0.15 M) and immediately transferring the tube to a boiling water bath for 5 min to terminate the reaction. The contents of the tubes were cooled to room temperature and vortexed vigorously to break up the coagulum. After centrifuge at 1400×g for 15 min, the clear supernatant (0.2 ml) was subjected to the UDP-glucose assay in a cuvette with a total volume of 1 ml containing 0.03 M Tris-acetate buffer, pH 8.7, 1.36 mM NAD, 0.2 ml sample (supernatant from the previous procedure) and 3.2 mU UDP-glucose dehydrogenase. The OD change at 340 nm was monitored by a UV spectrophotometer (HP 8453 Spectrophotometer, Hewlett-Packard Corn.).

[3] = 25 ml lysate per 1 L cell culture
[4] = purified His-tagged enzyme, 1 U = 1 μmole product per minute at 24° C.

Sequence of spHAS (P0C0H0 whole entry): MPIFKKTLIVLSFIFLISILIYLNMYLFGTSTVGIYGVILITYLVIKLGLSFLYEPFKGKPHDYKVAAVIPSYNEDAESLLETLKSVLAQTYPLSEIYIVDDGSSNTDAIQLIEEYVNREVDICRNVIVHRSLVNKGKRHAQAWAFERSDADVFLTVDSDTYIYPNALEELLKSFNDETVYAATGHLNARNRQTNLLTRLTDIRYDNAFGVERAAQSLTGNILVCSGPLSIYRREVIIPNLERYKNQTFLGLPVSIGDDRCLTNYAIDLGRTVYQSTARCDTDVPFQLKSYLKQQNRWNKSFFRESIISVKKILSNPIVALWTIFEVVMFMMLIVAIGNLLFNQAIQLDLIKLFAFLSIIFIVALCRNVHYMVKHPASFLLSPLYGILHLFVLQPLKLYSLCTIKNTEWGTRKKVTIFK

In the case of [Mn+2] [Mn^2+], the “effect on enzyme activity” value (Sucrose synthase II; sucrose-cleavage direction) is listed as “strongly inhibited”.

For CC(=O)N[C@H]1[C@@H](OP(=O)(O)OP(=O)(O)OC[C@H]2O[C@@H](n3ccc(=O)[nH]c3=O)[C@H](O)[C@@H]2O)O[C@H](CO)[C@@H](O)[C@@H]1O [UDP-GlcNAc, uridine 5′-diphospho-N-acetylglucosamine], the Km (spHAS) is listed as 149 ± 3 µM.

For CN1CC[C@]23c4c5ccc(O)c4O[C@H]2[C@@H](O[C@@H]2O[C@H](C(=O)O)[C@@H](O)[C@H](O)[C@H]2O)C=C[C@H]3[C@H]1C5 [morphine-6-O-glucuronide], the “activity relative to morphine” value [1] is given as 50 times.

In the case of Nc1ccn([C@@H]2O[C@H](COP(=O)(O)OP(=O)(O)OP(=O)(O)O)[C@@H](O)[C@H]2O)c(=O)n1 [CTP, Cytosine 5′-triphosphate], the Km (CMP-NeuNAc synthetase) is listed as 310 µM.

For [Mg+2] [Mg^2+], the “effect on enzyme activity” value (Sucrose synthase II; sucrose-cleavage direction) is listed as “little effect”.

For O=C(O)[C@H]1O[C@H](OP(=O)(O)OP(=O)(O)OC[C@H]2O[C@@H](n3ccc(=O)[nH]c3=O)[C@H](O)[C@@H]2O)[C@H](O)[C@@H](O)[C@@H]1O [UDP-GlcA, uridine 5′-diphosphoglucuronic acid], the Km (spHAS) is given as 40 ± 4 µM.

For Nc1ncnc2c1ncn2[C@@H]1O[C@H](COP(=O)(O)OP(=O)(O)OP(=O)(O)O)[C@@H](O)[C@H]1O [ATP, adenosine 5′-triphosphate], the “effect on enzyme activity” value (Sucrose synthase II; both directions, in the presence of uridine substrate (UDP-Glc or UDP)) is given as “strong inhibition”.

In the case of CC(=O)N[C@H]1C(OP(=O)(O)O)O[C@H](CO)[C@H](O)[C@@H]1O (stereo partly shown) [GalNAc-1-P, N-acetylgalactosamine-1-phosphate], the Km [2] is given as 290 µM.

For CC(=O)NC1C(OP(=O)(O)O)OC(CO)C(O)C1O (stereo not shown) [GlcNAc-1-P], the Km [2] is listed as 1100 µM.

B1: GalT: galactose-1-phosphate uridylyltransferase, E. coli, N-terminal six-histidine tag (protein, UniProt P09148 1-348, looked up)
Galactose-1-phosphate …: MTQFNPVDHPHRRYNPLTGQWILVSPHRAKRPWQGAQETPAKQVLPAHDPDCFLCAGNVRVTGDKNPDYTGTYVFTNDFAALMSDTPDAPESHDPLMRCQSARGTSRVICFSPDHSKTLPELSVAALTEIVKTWQEQTAELGKTYPWVQVFENKGAAMGCSNPHPHGQIWANSFLPNEAEREDRLQKEYFAEQKSPMLVDYVQRELADGSRTVVETEHWLAVVPYWAAWPFETLLLPKAHVLRITDLTDAQRSDLALALKKLTSRYDNLFQCSFPYSMGWHGAPFNGEENQHWQLHAHFYPPLLRSATVRKFMVGYEMLAETQRDLTAEQAAERLRAVSDIHFRESGV
modifications: N-terminal His6 tag
notes: galactose-1-phosphate uridylyltransferase, E. coli, N-terminal six-histidine tag
In the case of B1, the “activity of enzyme in the cell lysate” value (GalT; [3]) is reported as 100 U/L and the specific activity (GalT; [4]) is reported as 5 U/mg.

B2: GalU: glucose-1-phosphate uridylyltransferase, E. coli, N-terminal six-histidine tag (protein, UniProt P0AEP3 2-302, looked up)
UTP--glucose-1-phosphate …: AAINTKVKKAVIPVAGLGTRMLPATKAIPKEMLPLVDKPLIQYVVNECIAAGITEIVLVTHSSKNSIENHFDTSFELEAMLEKRVKRQLLDEVQSICPPHVTIMQVRQGLAKGLGHAVLCAHPVVGDEPVAVILPDVILDEYESDLSQDNLAEMIRRFDETGHSQIMVEPVADVTAYGVVDCKGVELAPGESVPMVGVVEKPKADVAPSNLAIVGRYVLSADIWPLLAKTPPGAGDEIQLTDAIDMLIEKETVEAYHMKGKSHDCGNKLGYMQAFVEYGIRHNTLGTEFKAWLEEEMGIKK
modifications: N-terminal His6 tag
notes: glucose-1-phosphate uridylyltransferase, E. coli, N-terminal six-histidine tag
In the case of B2, the “activity of enzyme in the cell lysate” value (GalU; [3]) is reported as 100 U/L and the specific activity (GalU; [4]) is reported as 10 U/mg.

Reference: patent publication US20020150968A1, “Glycoconjugate and sugar nucleotide synthesis using solid supports” (priority 2001, published 2002)
